≈ marks a conversion by molar mass, not a printed value.
Assays:
Format in all cases: cell-based
[1] = tested on: S. aureus 29213; experiment: MIC by microdilution (NCCLS), S. aureus 29213; conditions: Staphylococcus aureus, cation-adjusted Mueller-Hinton Broth, pH 7.2-7.3
Description: (§1) These assays have been performed following the description given in “Methods for dilution Antimicrobial Susceptibility Tests for Bacteria that Grow Aerobically, 4th ed.; Approved standard: NCCLS Document M7-A4; National Committee for Clinical Laboratory Standards Villanova, Pa., USA, 1997”. Minimal inhibitory concentrations (MICs; mg/l) were determined in cation-adjusted Mueller-Hinton Broth (BBL) by a microdilution method following NCCLS guidelines (National Committee for Clinical Laboratory Standards. Methods for Dilution Antimicrobial Susceptibility). The pH of the test medium was 7.2-7.3.
(§2) All Examples were tested against several Gram positive and Gram negative bacteria.

[2] = tested on: S. aureus A798; experiment: MIC by microdilution (NCCLS), S. aureus A798; conditions: Staphylococcus aureus, cation-adjusted Mueller-Hinton Broth, pH 7.2-7.3
Description: as §1, §2

[3] = tested on: E. faecalis 29212; experiment: MIC by microdilution (NCCLS), E. faecalis 29212; conditions: Enterococcus faecalis, cation-adjusted Mueller-Hinton Broth, pH 7.2-7.3
Description: as §1, §2

[4] = tested on: E. faecium A949; experiment: MIC by microdilution (NCCLS), E. faecium A949; conditions: Enterococcus faecium, cation-adjusted Mueller-Hinton Broth, pH 7.2-7.3
Description: as §1, §2

[5] = tested on: S. pneumoniae 49619; experiment: MIC by microdilution (NCCLS), S. pneumoniae 49619; conditions: Streptococcus pneumoniae, cation-adjusted Mueller-Hinton Broth, pH 7.2-7.3
Description: as §1, §2

[6] = tested on: H influenzae A921; experiment: MIC by microdilution (NCCLS), H influenzae A921; conditions: cation-adjusted Mueller-Hinton Broth, pH 7.2-7.3
Description: as §1, §2

[7] = tested on: M. catarrhalis A894; experiment: MIC by microdilution (NCCLS), M. catarrhalis A894; conditions: Moraxella catarrhalis, cation-adjusted Mueller-Hinton Broth, pH 7.2-7.3
Description: as §1, §2

[8] = tested on: E. coli 25922; experiment: MIC by microdilution (NCCLS), E. coli 25922; conditions: Escherichia coli, cation-adjusted Mueller-Hinton Broth, pH 7.2-7.3
Description: as §1, §2

[9] = tested on: P. aeruginosa 27853; experiment: MIC by microdilution (NCCLS), P. aeruginosa 27853; conditions: Pseudomonas aeruginosa, cation-adjusted Mueller-Hinton Broth, pH 7.2-7.3
Description: as §1, §2

Structure (SMILES) | MIC [1] [µg/mL] | MIC [2] [µg/mL] | MIC [3] [µg/mL] | MIC [4] [µg/mL] | MIC [5] [µg/mL] | MIC [6] [µg/mL] | MIC [7] [µg/mL] | MIC [8] [µg/mL] | MIC [9] [µg/mL]
O=C1CSc2ccc(CNC3CCC(C(=O)c4nc5ccccc5s4)CC3)cc2N1 (stereo not drawn) [Example 1, 6-{[4-(benzothiazole-2-carbonyl)-cyclohexylamino]-methyl}-4H-benzo[1,4]thiazin-3-one] | 0.25 (≈ 0.571 µM) | 0.125 (≈ 0.286 µM) | 0.5 (≈ 1.14 µM) | 1 (≈ 2.29 µM) | 2 (≈ 4.57 µM) | 0.063 (≈ 0.144 µM) | ≤ 0.031 | 0.5 (≈ 1.14 µM) | 16 (≈ 36.6 µM)
Cc1cccc2sc(C(=O)[C@H]3CC[C@H](NCc4ccc5c(c4)NC(=O)CS5)CC3)nc12 [Example 4, 6-{[trans-4-(4-methyl-benzothiazole-2-carbonyl)-cyclohexylamino]-methyl}-4H-benzo[1,4]thiazin-3-one] | 0.125 (≈ 0.277 µM) | 0.063 (≈ 0.139 µM) | 0.5 (≈ 1.11 µM) | 0.25 (≈ 0.554 µM) | 1 (≈ 2.21 µM) | 0.25 (≈ 0.554 µM) | ≤ 0.031 | 1 (≈ 2.21 µM) | 4 (≈ 8.86 µM)
COc1cccc2sc(C(=O)[C@H]3CC[C@H](NCc4ccc5c(n4)NC(=O)CS5)CC3)nc12 [Example 23, 6-{[trans-4-(4-methoxy-benzothiazole-2-carbonyl)-cyclohexylamino]-methyl}-4H-pyrido[3,2-b][1,4]thiazin-3-one] | 1 (≈ 2.13 µM) | 0.5 (≈ 1.07 µM) | 8 (≈ 17.1 µM) | 8 (≈ 17.1 µM) | 4 (≈ 8.54 µM) | 8 (≈ 17.1 µM) | 0.25 (≈ 0.533 µM) | 16 (≈ 34.1 µM) | > 16
COc1cccc2sc(O[C@H]3CC[C@H](NCc4ccc5c(c4)NC(=O)CS5)CC3)nc12 [Example 28, 6-{[trans-4-(4-methoxy-benzothiazol-2-yloxy)-cyclohexylamino]-methyl}-4H-benzo[1,4]thiazin-3-one] | 8 (≈ 17.6 µM) | 1 (≈ 2.19 µM) | 16 (≈ 35.1 µM) | 16 (≈ 35.1 µM) | 16 (≈ 35.1 µM) | 16 (≈ 35.1 µM) | 0.125 (≈ 0.274 µM) | 16 (≈ 35.1 µM) | > 16
COc1cccc2sc(C(=O)[C@@H]3CC[C@@H](NCc4ccc5c(n4)NC(=O)CS5)CO3)nc12 [Example 29, (3R,6S)-6-{[6-(4-methoxy-benzothiazole-2-carbonyl)-tetrahydro-pyran-3-ylamino]-methyl}-4H-pyrido[3,2-b][1,4]thiazin-3-one] | 1 (≈ 2.13 µM) | 2 (≈ 4.25 µM) | 2 (≈ 4.25 µM) | 1 (≈ 2.13 µM) | 4 (≈ 8.5 µM) | 2 (≈ 4.25 µM) | 0.125 (≈ 0.266 µM) | 16 (≈ 34 µM) | > 16
COc1cccc2sc(C(=O)C3CCN(CC(=O)c4ccc5c(c4)NC(=O)CO5)CC3)nc12 [Example 34, 6-{2-[4-(4-methoxy-benzothiazole-2-carbonyl)-piperidin-1-yl]-acetyl}-4H-benzo[1,4]oxazin-3-one] | 1 (≈ 2.15 µM) | 2 (≈ 4.3 µM) | 16 (≈ 34.4 µM) | 4 (≈ 8.59 µM) | 16 (≈ 34.4 µM) | 2 (≈ 4.3 µM) | 0.25 (≈ 0.537 µM) | 16 (≈ 34.4 µM) | > 16

From patent publication US7981886B2, “Antibiotics derivatives” (Actelion Pharmaceutical Ltd., priority 2005, dated 2011)
